These results are taken from patent US20260083677A1, “ACTIVE INGREDIENT CONTAINING STABILISED SOLID MEDICINAL FORMS AND METHODS FOR THE PRODUCTION THEREOF” (ASTELLAS PHARMA INC., priority 2006, published 2026).

Format in all cases: physicochemical
The nature of data set [1]: drying loss determination on a drying balance. The settings on record: for drying loss at 130° C./30 min: substances dried at 130° C. for 5 hours (sorbitol: 70° C.). On the procedure: drying loss in %=mass of the water in the sample/total mass of the sample×100
In order to determine the drying loss of a sample (e.g. a solid medicinal form), the sample is spread over a so-called drying balance and (e.g. by an accurately working infrared radiator) adjusted to the desired temperature, e.g. of 105° C. After a certain time (e.g. after 20 or 30 minutes), the drying loss due to the evaporation of water is directly read off the balance in percent. Unless otherwise specified in this application, the expression “drying loss” refers to the drying loss determined under the conditions of 105° C./30 min. A suitable device for measuring of the drying loss is the Moisture Analyzer HR83 of Mettler-Toledo company (CH-8606 Greifensee, Switzerland). The device or the drying balance is preferably used in a closed interior having an ambient temperature of 20° C. and 20% relative humidity.

Data set [2] in a line: relative equilibrium moisture content in sealed measuring cell (HygroLab, AWVC cell). The settings on record: for equilibrium moisture: substances dried at 130° C. for 5 hours (sorbitol: 70° C.). On the procedure:
In connection with the present invention it is, however, very important to have a method furnishing information on the bonding mechanism of water and the strength of the water bond. For this purpose, the so-called “relative equilibrium moisture content” (hereinafter also abbreviated as “equilibrium moisture content”) is measured which forms on the sample in a fully sealed measuring cell at a certain temperature. It is also referred to as equilibrium activity or water activity. The water activity describes the bond strength of water to the active ingredient and/or the individual components of the active ingredient mixture. The measured value for the water activity and/or for the equilibrium moisture (Equilibrium Relative Humidity) has a decisive influence on the chemical stability of a moisture-sensitive active ingredient which is embedded in a solid form, such as granules, a capsule or tablet.
The equilibrium moisture content is the value of the relative humidity in which a hygroscopic product can be stored without a net moisture exchange taking place between the product and its environment. Thus, if a solid form has an equilibrium moisture content of 10% and is stored at a relative humidity of 15%, it absorbs water from its environment, if the relative moisture of the environment is below 10%, the solid form releases water to its environment and becomes even drier.
Unless otherwise specified, the equilibrium moisture content is determined as follows in a thermostated small, tightly sealed measuring cell having a volume of about 50 ml. In the upper part of this measuring cell there is a sensor which can measure the relative moisture content resulting from the evaporation of water from the sample to be measured (the device HygroLab having the AWVC measuring cell of Rotronic company, CH 8303 Bassersdorf, Switzerland, is used) The device is officially calibrated and the measuring inaccuracy is no more than +1% relative humidity or +0.3° C. The measuring accuracy can be repeated at any time with standardized salt solutions as known to the person skilled in the art. The measurement takes place at 25° C.

Data set [3] can be described thus: removal of water of crystallization from amoxicilline trihydrate by a drying agent in a tightly sealing glass vessel. On the procedure:
In a tightly sealing glass vessel, two Arcellas having 3.5 g trimagnesium dicitrate, dried at 130° C., or having 1.264 g amoxicilline trihydrate (water content 13.1%) are placed side by side and stored at 25° C. After 14 days, the weight of amoxicilline is only 1,105 g whereas the weight of trimagnesium dicitrate is 3.66 g. The amoxicilline released 12.6% water of crystallization which was absorbed by the drying agent. The new drying agent is active such that it virtually split off the entire water of crystallization of amoxicilline (theoretical value: 12.9%).
If this experiment is repeated with the known drying agent silica gel, the antibiotic only loses 0.1% weight after 25 days. This means that the dried trimagnesium dicitrate according to the invention represents an extremely potent drying agent.
Under precisely equal test conditions, the amoxicilline only loses 9.0% with calcium chloride dried at 130° C. after 26 days/25° C.

Data set [4] is described as follows: weight increase on storage at 25° C./15% relative humidity over 27 days. The settings on record: substances dried at 130° C. for 5 hours (sorbitol: 70° C.). As for the experimental part: The substances were dried at 130° C. for 5 hours (sorbitol: 70° C.) and the drying loss was determined. Then, the weight increase of the individual substances was determined at 25° C./15% relative humidity over 27 days.

The mark [5] stands for this setting: measuring cell thermostated to 25° C.
The mark [6] stands for this setting: measured at 150° C./30 min, after drying at 130° C. for several hours.
Where [7] appears, read: after drying at 130° C. for several hours.

For the molecule `O=S(=O)([O-])[O-].[Na+].[Na+]` [Sodium sulfate, reference compound], the “drying loss at 130° C.” value in data set [1] (testing period 30 min) is recorded as 0.06%. The equilibrium moisture content in data set [2] (setting [5]) is given as 32.7%.
In the case of `CC1(C)S[C@@H]2[C@H](NC(=O)[C@H](N)c3ccc(O)cc3)C(=O)N2[C@H]1C(=O)O` [amoxicilline, amoxicilline trihydrate], the “weight of amoxicilline after storage” value in data set [3] (1.264 g at start, beside 3.5 g dried trimagnesium dicitrate, 14 days, 25° C.) is reported as 1,105 g. The weight loss in data set [3] (drying agent calcium chloride dried at 130° C., after 26 days/25° C.) was found to be 9.0%; in data set [3] (drying agent silica gel, after 25 days), 0.1%. Moreover, the “water of crystallization released” value in data set [3] (drying agent trimagnesium dicitrate dried at 130° C., 14 days, 25° C.) came out at 12.6%.
In the case of `[Ca+2].[Cl-].[Cl-]` [calcium chloride], in data set [4], the “weight increase (%) with storage at 15% relative humidity/25° C.” value was determined as 45.9%. The drying loss in data set [1] (setting [6]) was 3.4%. For the same molecule, the “drying loss at 130° C./30 min” value in data set [1] amounted to 0.02. The equilibrium moisture content in data set [2] (setting [7]) is listed as < 0.5%. In data set [2], the equilibrium moisture was < 1%.
Consider `O=C(O)CC(O)(CC(=O)O)C(=O)O` [citric acid], for which, in data set [1] (measured at 70° C./30 min), the drying loss worked out at 0.2%. Besides, in data set [2] (setting [5]), the equilibrium moisture content is 63%.
Regarding `OC[C@@H](O)[C@@H](O)[C@H](O)[C@@H](O)CO` [sorbitol], in data set [4], the “weight increase (%) with storage at 15% relative humidity/25° C.” value was determined as 0.1%. Besides, the “drying loss at 130° C./30 min” value in data set [1] amounted to 0.1. This molecule also came in with an equilibrium moisture in data set [2] of 9%.
Take `O=C([O-])CC(O)(CC(=O)[O-])C(=O)[O-].O=C([O-])CC(O)(CC(=O)[O-])C(=O)[O-].[Mg+2].[Mg+2].[Mg+2]` [trimagnesium dicitrate]: the “weight of trimagnesium dicitrate after storage” value in data set [3] (3.5 g at start, dried at 130° C., beside amoxicilline trihydrate, 14 days, 25° C.) is on record as 3.66 g. In addition, the “weight increase (%) with storage at 15% relative humidity/25° C.” value in data set [4] worked out at 8.6%. In addition, the drying loss in data set [1] (setting [6]) is recorded as 1.6%. For the same molecule, the “drying loss at 130° C./30 min” value in data set [1] is reported as 0.2. Besides, the equilibrium moisture content in data set [2] (setting [7]) is < 0.5%; in data set [2] (after drying at 130° C. for several hours, at 25° C.) it was 0.6%. The equilibrium moisture in data set [2] is < 1%.
